# Experimental data: patent US9884126B2, “Anti-wall teichoic antibodies and conjugates” (priority 2013, dated 2018)
# “Also recorded” adds a separate entry of the source.
# Key:
# [1] = tested on: MRSA (NRS384 strain of USA300); assay: MIC determination for extracellular bacteria; assay type: cell-based; conditions: Staphylococcus aureus, read-out: Extracellular MRSA MIC
# Method: Dilutions of the antibiotic were made in quadruplicate in 96 well culture dishes. MRSA (NRS384 strain of USA300) was taken from an exponentially growing culture and diluted to 1×10^4 CFU/mL. Bacteria was cultured in the presence of antibiotic for 18-24 hours with shaking at 37° C. and bacterial growth was determined by reading the Optical Density (OD) at […]. The MIC was determined to be the dose of antibiotic that inhibited bacterial growth by >90%.
# [2] = tested on: MRSA (NRS384 strain of USA300); assay: MIC determination / killing of intracellular bacteria in mouse peritoneal macrophages; assay type: cell-based, Staphylococcus aureus; conditions: for killing of intracellular MRSA sequestered inside macrophages: doses including clinically achieveable serum levels
# MRSA [3] = assay: Intravenous infection model, established infection in CB17.SCID mice; assay type: in vivo; conditions: treated 1 day after infection; AAC 50 mg/Kg, antibiotic 0.5 mg/Kg; kidneys day 4
# Method: Mice were treated with the AAC 30 minutes after infection. To better replicate conditions likely to occur in MRSA patients seeking treatment, it was determined whether the AAC is effective at clearing an established infection and that linking of the antibiotic to an anti-S. aureus antibody provides a definite advantage over treatment with antibiotic alone. To this end, the efficacy of AAC with an equivalent dose of the antibiotic dimethyl-pipBOR was compared.
# One day after infection, the mice were treated with 50 mg/Kg of S4497 antibody, 50 mg/Kg of S4497 dimethyl-pipBOR AAC 105 or with 0.5 mg/Kg of dimethyl-pipBOR antibiotic 7, the equivalent dose of antibiotic that is contained in 50 mg/Kg of AAC). Mice were sacrificed 4 days after infection and the total number of surviving bacteria per mouse (2 kidneys pooled) was determined by plating.
# 7 week old female mice were used for all in vivo experiments and infections were carried out by intravenous injection into the tail vein. A/J mice (Jackson Lab) were infected with a dose of 2×10^6 CFU. Balb/c mice (Charles River Laboratories, Hollister, Calif.) were infected with a dose of 2×10^7 CFU. […] The total number of bacteria recovered per mouse (2 kidneys) was determined by plating serial dilutions of the tissue homogenate in PBS 0.05% Tween on Tryptic Soy Agar with 5% defibrinated sheep blood.
# [4] = tested on: USA300 strain of MRSA (NRS384); assay: In vitro macrophage assay (intracellular killing of opsonized MRSA); assay type: cell-based, Staphylococcus aureus; conditions: for Macrophage assay activity: in vitro macrophage assay (Example 18), grades 0, weak, 1+ not defined; for CFU/well after treatment: 100 μg/mL, reduced from 10,000 CFU/well
# Method: (§1) Peritoneal macrophages were isolated from the peritoneum of 6-8 week old Balb/c mice (Charles River Laboratories, Hollister, Calif.). To increase the yield of macrophages, mice were pre-treated by intraperitoneal injection with 1 mL of thioglycolate media (Becton Dickinson). The thioglycolate media was prepared at a concentration of 4% in water, sterilized by autoclaving, and aged for 20 days to 6 months prior to use. Peritoneal macrophages were harvested 4 days post treatment with thioglycolate by washing the peritoneal cavity with cold phosphate buffered saline. Macrophages were plated in Dulbecco's Modified Eagle Medium (DMEM) supplemented with 10% Fetal Calf Serum, and 10 mM HEPES, without antibiotics, at a density of 4×10^5 cells/well in 24 well culture dishes. Macrophages were cultured over night to permit adherence to the plate. This assay was also utilized to test intracellular killing in non-phagocytic cell types. MG63 (CRL-1427) and A549 (CCL185) cell lines were obtained from ATCC and maintained in RPMI 1640 tissue culture media supplemented with 10 mM Hepes and 10% Fetal Calf Serum (RPMI-10). HUVEC cells were obtained from Lonza and maintained in EGM Endothelial Cell Complete Media (Lonza, Walkersville, Md.).
# MRSA (USA300 strain) [5] = assay: Intracellular killing in macrophages and non-phagocytic cell types (MG63, A549, HUVEC); assay type: cell-based, Staphylococcus aureus; conditions: 50 μg/mL, macrophages
# Description: MRSA is able to invade a number of non-phagocytic cell types including osteoblasts and various epithelial and endothelial cell types (Garzoni and Kelly, (2008) Trends in Microbiology). MRSA is able to infect an osteoblast cell line (MG63), an airway epithelial cell line (A549) and primary cultures of human umbilical vein endothelial cells (HUVEC). […] The dashed line indicates the limit of detection for the assay.
# as §1, with “MG63 (CRL-1427) and A549 (CCL185) cell lines were obtained from ATCC and maintained in RPMI 1640 tissue culture media supplemented with 10 mM Hepes and 10% Fetal Calf Serum (RPMI-10). HUVEC cells were obtained from Lonza and maintained in EGM Endothelial Cell Complete Media (Lonza, Walkersville, Md.).” left out
# MRSA (USA300) = assay: Peritonitis model (intraperitoneal infection); assay type: in vivo, A/J mice; conditions: 50 mg/Kg thirty minutes after infection; 2 days
# Description: An in vivo peritonitis model in mice was established to test the efficacy of AAC. In this model, mice are infected by intraperitoneal injection (I.P.) of MRSA and the bacterial load is monitored 2 days after infection in the peritoneal fluid and kidney. Bacteria harvested from the peritoneum could be found either as free floating extracellular bacteria or internalized inside peritoneal cells—primarily neutrophils and macrophages—that are recruited to the site of the infection.
# Intraperitoneal infection model in A/J mice. Mice were infected with 5×10^7 CFU of MRSA by intraperitoneal injection and treated with 50 mg/Kg of S4497 antibody alone or with 50 mg/Kg of the S4497-pipBOR AAC 102 by intraperitoneal injection (protocol 11-2032A). Mice were sacrificed 2 days post infection and the total bacterial load was assessed in the peritoneal supernatant (Extracellular bacteria), peritoneal cells (Intracellular bacteria) or in the kidney.
# A/J mice were infected with USA300 and administered 50 mg/Kg of either S4497 antibody or S4497-pipBOR AAC 102 thirty minutes after infection. After 2 days, the mice were sacrificed and bacterial loads were monitored in the peritoneal wash and the kidney. To distinguish between extracellular and intracellular bacteria, the peritoneal wash was centrifuged gently to separate the supernatant, containing extracellular bacteria, and the peritoneal cells. […]
# MRSA (USA300 strain) [6] = assay: Intravenous infection model in A/J mice; assay type: in vivo
# MRSA [7] = assay: Cathepsin release / growth inhibition assay; assay type: cell-based, S. aureus; conditions: overnight culture, up to 10 μg/mL of AAC
# Method: An AAC comprising antibody rF1, which binds to a family of cell wall associated proteins was conjugated to a rifamycin derivative. S. aureus (Newman strain) was treated with various doses of the rF1-AAC or with equivalent doses of either antibody alone, rifampicin alone or a mixture of antibody and free rifampicin to permit antibody binding to the bacteria (opsonization) and after 1 hour incubation the opsonized bacteria were fed to macrophages (FIG. 7A).
# See: page 863 of Dubowchik et al (2002) Bioconj. Chem. 13:855-869, incorporated by reference for the purposes of this assay. Cathepsin B (from bovine spleen, SIGMA C7800) was added at 10 μg/mL and the samples were incubated for 1 hour at 37° C. As a control, AAC were incubated in buffer alone. The reaction was stopped by addition of 10 volumes of bacterial growth media, Tryptic Soy Broth pH 7.4 (TSB). To estimate the total release of active antibiotic, serial dilutions of the reaction mixture were made in quadruplicate in TSB in 96 well plates and the USA300 strain of S. aureus was added to each well at a final density of 2×10^3 CFU/mL. The cultures were incubated over night at […] with shaking and bacterial growth was measured by reading absorbance at 630 nm using a plate reader.
Compound,Macrophage assay activity [4],also measured
CCCCCCCCCC(=O)N[C@@H](Cc1c[nH]c2ccccc12)C(=O)N[C@H](CC(N)=O)C(=O)N[C@@H](CC(=O)O)C(=O)N[C@@H]1C(=O)NCC(=O)N[C@@H](CCCN)C(=O)N[C@@H](CC(=O)O)C(=O)N[C@H](C)C(=O)N[C@@H](CC(=O)O)C(=O)NCC(=O)N[C@H](CO)C(=O)N[C@@H]([C@H](C)CC(=O)O)C(=O)N[C@@H](CC(=O)c2ccccc2N)C(=O)O[C@@H]1C [Daptomycin],–,"MIC [1]: 4 µg/mL; MIC ([2]; Staphylococcus aureus, 24 h, MRSA inside mouse peritoneal macrophages, […]): > 100 µg/mL; killing of intracellular MRSA sequestered inside macrophages [2]: failed to kill"
CC(=O)NC[C@H]1CN(c2ccc(N3CCOCC3)c(F)c2)C(=O)O1 [Linezolid],–,killing of intracellular MRSA sequestered inside macrophages [2]: failed to kill
"CO[C@H]1/C=C/O[C@@]2(C)Oc3c(C)c(O)c4c(=O)c(c5oc6cc(N7CCC(N(C)C)CC7)cc(O)c6nc-5c4c3C2=O)NC(=O)/C(C)=C\C=C\[C@H](C)[C@H](O)[C@@H](C)[C@@H](O)[C@@H](C)[C@H](OC(C)=O)[C@@H]1C [dimethyl-pipBOR, dimethylpiperidyl benzoxazino rifamycin]",–,killing of intracellular MRSA as free antibiotics relative to rifampicin [2]: more potent than rifampicin; efficacy against established infection (MRSA [3]): failed to clear the infection
piperidyl benzoxazino rifamycin [pipBOR],–,killing of intracellular MRSA as free antibiotics relative to rifampicin [2]: more potent than rifampicin
"thio-S4497 WT (V8), LC V205C-(thiostrepton) [AAC 128]",0,–
thio-S4497-HC-A118C-MC-vc-PAB-(clindamycin) [AAC 101],0,–
thio-S4497-HC-A118C-MC-vc-PAB-(novobiocin) [AAC 102],0,–
thio-S4497-HC-A118C-MC-vc-PAB-(retapamulin) [AAC 103],0,–
thio-S4497-HC-A118C-MC-vc-PAB-(triclosan) [AAC 109],0,–
thio-S4497-HC-A118C-MC-vc-PABC-(GSK-2140944) [AAC 105],0,–
thio-S4497-HC-A118C-MC-vc-PABC-(ampicillin) [AAC 113],0,–
thio-S4497-HC-A118C-MC-vc-PABC-(daptomycin) [AAC 104],0,–
thio-S4497-HC-A118C-MC-vc-PABC-(pipBOR) [S4497-pipBOR AAC 102],–,"intracellular killing of MRSA (MRSA (USA300 strain) [5]): effectively killed; clearance of infection (peritoneal wash and kidney) (MRSA (USA300)): cleared the infection to below the limit of detection; efficacy at 50 mg/Kg (kidney bacterial load) (MRSA (USA300 strain) [6]; 50 mg/Kg IV 30 minutes post infection, kidneys 4 days post infection): cleared the infection in all of the mice tested; also recorded: effective; efficacy at lower doses (MRSA (USA300 strain) [6]; doses below 50 mg/Kg down to 2 m/Kg, 30 minutes after infection): only partially efficacious; inhibition of bacterial growth by AAC not pre-treated with cathepsin B (MRSA [7]): did not result in inhibition of bacterial growth"
thio-S4497-HC-A118C-MC-vc-PABC-(sitafloxacin) [AAC 107],weak,"CFU/well after treatment [4]: about 5,000 CFU/well"
thio-S4497-HC-A118C-MC-vc-PABC-(teicoplanin) [AAC 108],weak,CFU/well after treatment [4]: about 500 CFU/well
thio-S4497-v8-LC-V205C-(azithromycin) [AAC 121],0,–
thio-S4497-v8-LC-V205C-(thiostrepton) [AAC 141],0,–
thio-S4497-v8-LC-V205C-MC-vc-PABC-(teicoplanin) [AAC 140],0,–
thio-S4497-v8-LC-cys-MC-vc-PAB-(nosiheptide) [AAC 149],0,–
